Measured values as given in US20240174618A1, “SUBSTITUTED (2-HETEROARYLOXYPHENYL)SULFONATES, SALTS THEREOF AND THEIR USE AS HERBICIDAL AGENTS” (Bayer Aktiengesellschaft, priority 2021, published 2024).

Assays:
Type in all cases: in vivo
Poa annua (POAAN) = experiment: A. Herbicidal pre-emergence efficacy, POAAN
Procedure, shortened: (§1)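 Applied before emergence onto covering soil at rates of 1280 g/ha or less, using 600 L/ha spray water with 0.5% additive. Scoring: visual % efficacy after ~3 weeks, greenhouse.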

Stellaria media (STEME) [1] = experiment: A. Herbicidal pre-emergence efficacy, STEME
Procedure, shortened: as §1

[2] = system: Amaranthus retroflexus (AMARE); experiment: A. Herbicidal pre-emergence efficacy, AMARE
Procedure, shortened: as §1

Setaria viridis (SETVI) = experiment: B. Herbicidal post-emergence efficacy, SETVI
Procedure, shortened: (§2)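 Post-emergence foliar spray, at application rates of 1280 g/ha or less, on one-leaf-stage plants 2–3 weeks post-sowing, using aqueous WP or EC suspensions with 0.5% additive at 600 L/ha. Visual percent efficacy relative to untreated plants scored roughly 3 weeks later in the greenhouse.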

Stellaria media (STEME) [3] = experiment: B. Herbicidal post-emergence efficacy, STEME
Procedure, shortened: as §2

[4] = system: Abutilon theophrasti (ABUTH); experiment: C. Herbicidal pre-emergence efficacy, ABUTH; conditions: scored after about 3 weeks
Procedure, shortened: (§3)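 Pre-emergence test: formulated compounds sprayed as aqueous suspension or emulsion with 0.5% additive at 600 l/ha onto soil covering sown seeds, at rates corresponding to 320 g/ha or less. After about 3 weeks in greenhouse, efficacy scored visually as percent versus untreated controls (100% = plants dead).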

[5] = system: Amaranthus retroflexus (AMARE); experiment: C. Herbicidal pre-emergence efficacy, AMARE; conditions: scored after about 3 weeks
Procedure, shortened: as §3

[6] = system: Echinochloa crus-galli (ECHCG); experiment: E. Herbicidal post-emergence efficacy, ECHCG
Procedure, shortened: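 Visual scoring against untreated plants was done roughly 3 weeks after spraying (0% = no effect, 100% = plants dead). Spray application at 320 g/ha or lower, 600 l/ha water with 0.5% additive, was made onto green parts of one-leaf-stage greenhouse plants grown 2-3 weeks in sandy loam.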

SMILES	Pre-emergence efficacy against POAAN (Poa annua (POAAN); dosage 80 g/ha)	Pre-emergence efficacy against POAAN (Poa annua (POAAN); dosage 320 g/ha)	Pre-emergence efficacy against POAAN (Poa annua (POAAN); dosage 1280 g/ha)	Pre-emergence efficacy against STEME (Stellaria media (STEME) [1]; dosage 80 g/ha)	Pre-emergence efficacy against STEME (Stellaria media (STEME) [1]; dosage 320 g/ha)	Pre-emergence efficacy against STEME (Stellaria media (STEME) [1]; dosage 1280 g/ha)	Pre-emergence efficacy against AMARE in % ([2]; 80 g/ha)	Pre-emergence efficacy against AMARE in % ([2]; 320 g/ha)	Pre-emergence efficacy against AMARE in % ([2]; 1280 g/ha)	Post-emergence efficacy against SETVI (Setaria viridis (SETVI); 1280 g/ha)	Post-emergence efficacy against STEME (Stellaria media (STEME) [3]; 80 g/ha)	Post-emergence efficacy against STEME (Stellaria media (STEME) [3]; 320 g/ha)	Post-emergence efficacy against STEME (Stellaria media (STEME) [3]; 1280 g/ha)	Pre-emergence efficacy against ABUTH ([4]; 320 g/ha)	Pre-emergence efficacy against AMARE ([5]; 80 g/ha)	Pre-emergence efficacy against AMARE ([5]; 320 g/ha)	Post-emergence efficacy against ECHCG in % ([6]; application rate 320 g/ha)	Post-emergence efficacy against SETVI (Setaria viridis (SETVI); 320 g/ha)	Pre-emergence efficacy against ABUTH ([4]; 80 g/ha)	Post-emergence efficacy against ECHCG in % ([6]; application rate 80 g/ha)
O=S(=O)(CCCCCl)Oc1ccccc1Oc1ncc(Cl)cn1 [Example I-15]	100%	100%	100%	100%	100%	100%	100%	100%	100%	100%	100%	100%	100%	100%	90%	100%	80%			
O=S(=O)(CCCC(F)(F)F)Oc1ccccc1Oc1ncc(Cl)cn1 [Example I-10]	100%	100%	100%	100%	100%	100%	100%	100%	100%	100%	90%	90%	100%	100%	100%	100%	90%	100%	100%	90%
O=S(=O)(CCCC(F)(F)F)Oc1c(F)cccc1Oc1ncc(Br)cn1 [Example I-41]	100%	100%	100%	100%	100%	100%	100%	100%	100%	90%	90%	90%	90%	100%	100%	100%	100%	90%	100%	90%
CC(C)CCS(=O)(=O)Oc1ccccc1Oc1ncc(Cl)cn1 [Example I-25]		100%	100%		90%	100%	90%	100%	100%	90%	90%	100%	100%	100%	100%	100%	100%	90%		
O=S(=O)(CC1CC1)Oc1ccccc1Oc1ncc(Cl)cn1 [Example I-23]	90%	90%	90%	100%	100%	100%	90%	100%	100%	100%	90%	100%	100%	100%	100%	100%	100%		100%	
O=S(=O)(CCCC(F)(F)F)Oc1c(F)cccc1Oc1ncc(Cl)cn1 [Example I-49]	90%	100%	100%	100%	100%	100%	90%	100%	100%	90%	90%	90%	90%	100%	100%	100%	100%	90%	100%	100%
O=S(=O)(CCC(F)(F)F)Oc1c(Cl)cccc1Oc1ncc(Cl)cn1 [Example I-38]		100%	100%	100%	100%	100%	100%	100%	100%	90%	90%	90%	90%	100%	100%	100%	100%		100%	
CCCCS(=O)(=O)Oc1ccccc1Oc1ncc(Cl)cn1 [Example I-6]		90%	90%	100%	100%	100%	100%	100%	100%	90%		90%	90%	100%	100%	100%	100%		90%	90%
O=S(=O)(CCCC(F)(F)C(F)(F)F)Oc1c(F)cccc1Oc1ncc(Cl)cn1 [Example I-68]		90%	100%		100%	100%		100%	100%	90%	90%	100%	100%	100%	100%	100%	90%	90%	100%	
